Tests used:
[1] = molecular target: T1, HCV NS3/4A protease complex, H77 strain (Hepatitis C virus genotype 1a, UniProt P27958, C1454S/C1711G); test: FRET peptide assay to monitor HCV NS3/4A proteolytic activity (H77 strain); format: biochemical, HCV genotype 1a
T1 construct: recombinant HCV NS3/4A protease complex (amino acids 1027 to 1711) for these strains; His tag (inferred from pET21b vector and Ni-NTA purification); made in house; host or cells: Escherichia coli BL21 (DE3), pET21b
Source text: HCV NS3 protease complexes, derived from the BMS strain, H77 strain or J4L6S strain, were generated, as described below. These purified recombinant proteins were generated for use in a homogeneous assay (see below) to provide an indication of how effective compounds of the present disclosure would be in inhibiting HCV NS3 proteolytic activity.
Serum from an HCV-infected patient was obtained from Dr. T. Wright, San Francisco Hospital. An engineered full-length cDNA (compliment deoxyribonucleic acid) template of the HCV genome (BMS strain) was constructed from DNA fragments obtained by reverse transcription-PCR (RT-PCR) of serum RNA (ribonucleic acid) and using primers selected on the basis of homology between other genotype 1a strains. From the determination of the entire genome sequence, a genotype 1a was assigned to the HCV isolate according to the classification of Simmonds et al. (See P Simmonds, K A Rose, S Graham, S W Chan, F McOmish, B C Dow, E A Follett, P L Yap and H Marsden, J. Clin. Microbiol., 31(6), 1493-1503 (1993)). […]

[2] = molecular target: T2, porcine pancreatic elastase (PPE) (Sus scrofa, UniProt P00772); test: Specificity assay, porcine pancreatic elastase (pNA substrate); format: biochemical; details: read-out: PPE activity in the specificity assays (IC50)
T2 construct: purchased Sigma or EMDbiosciences
T2 sequence (P00772 27-266): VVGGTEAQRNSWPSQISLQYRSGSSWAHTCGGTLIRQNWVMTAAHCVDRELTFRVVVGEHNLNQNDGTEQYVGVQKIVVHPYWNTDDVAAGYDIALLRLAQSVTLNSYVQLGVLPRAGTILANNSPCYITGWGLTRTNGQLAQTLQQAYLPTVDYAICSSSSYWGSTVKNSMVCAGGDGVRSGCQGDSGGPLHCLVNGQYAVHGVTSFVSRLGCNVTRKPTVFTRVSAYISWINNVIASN
Protocol: The specificities of compounds of the present disclosure were determined against a variety of serine proteases: human neutrophil elastase (HNE), porcine pancreatic elastase (PPE) and human pancreatic chymotrypsin and one cysteine protease: human liver cathepsin B. In all cases, a 96-well plate format protocol using colorimetric p-nitroaniline (pNA) substrate or fluorometric Amino-Methyl-Coumarin (AMC) substrate, specific for each enzyme was used as described previously (PCT Patent Application No. WO 00/09543) with some modifications. All enzymes were purchased from Sigma or EMDbiosciences while the substrates were from Bachem.
Each pNA assay included a 2 h enzyme-inhibitor pre-incubation at room temperature followed by addition of substrate and hydrolysis to ˜15% conversion as measured on a Spectramax Pro microplate reader. The cathepsin B assay was initiated by adding substrate to a 10 min enzyme-inhibitor pre-incubation at room temperature, and the assay plate measured immediately using the Cytofluor Series 4000. Compound concentrations varied from 100 to 0.4 μM depending on their potency.
The final conditions for each assay were as follows: […]
The percentage of inhibition was calculated using the formula: [1−((UVinh−UVblank)/(UVctl−UVblank))]×100 […]

T1 sequence (P27958 1027-1711 C1454S/C1711G, one chain of several): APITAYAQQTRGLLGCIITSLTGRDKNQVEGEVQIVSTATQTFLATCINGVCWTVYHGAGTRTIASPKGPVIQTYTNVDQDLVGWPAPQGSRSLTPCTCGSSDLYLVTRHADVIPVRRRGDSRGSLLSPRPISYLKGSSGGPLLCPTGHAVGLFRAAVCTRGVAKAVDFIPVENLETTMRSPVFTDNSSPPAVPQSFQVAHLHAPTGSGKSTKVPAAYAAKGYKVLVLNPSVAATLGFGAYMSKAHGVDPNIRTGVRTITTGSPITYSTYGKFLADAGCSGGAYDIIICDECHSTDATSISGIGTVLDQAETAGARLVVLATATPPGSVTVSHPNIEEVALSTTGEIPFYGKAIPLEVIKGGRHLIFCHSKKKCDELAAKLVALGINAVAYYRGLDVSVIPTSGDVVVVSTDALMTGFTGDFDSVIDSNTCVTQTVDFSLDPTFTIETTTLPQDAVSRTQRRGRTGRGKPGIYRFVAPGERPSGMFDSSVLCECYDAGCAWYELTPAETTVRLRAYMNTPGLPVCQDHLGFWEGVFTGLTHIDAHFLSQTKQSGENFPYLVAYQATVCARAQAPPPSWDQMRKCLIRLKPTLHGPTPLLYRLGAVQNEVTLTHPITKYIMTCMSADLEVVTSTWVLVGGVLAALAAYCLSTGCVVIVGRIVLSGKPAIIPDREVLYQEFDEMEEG

COc1c(O[C@@H]2C[C@H]3C(=O)N[C@]4(C(=O)NS(=O)(=O)C5CC5)C[C@H]4/C=C\CCCCC[C@H](NC(=O)OC(C)(C)C)C(=O)N3C2)ccc2c(Cl)nccc12 [Compound 3]
IC50 [1]: 0.6 nM
IC50 [2]: > 100000 nM

— patent publication US7741281B2, “Hepatitis C virus inhibitors” (Bristol-Myers Squibb Company, priority 2005, dated 2010)
